Test results: publication PMC9401487 (Clinical Cancer Research, 2021)
Entries after “also recorded” stand apart in the source; their conditions may differ.

Test system: patients with advanced solid tumors
Experiment: Phase I safety and tolerability
Assay type: in vivo, human
[1] = Cohort 3 (N=3), 40 mg BID 10 days + carboplatin
[2] = Cohort 3: 40 mg BID days 4–13 (10 days) + carboplatin AUC5, 3 patients
[3] = Cohort 4 (N=3), 40 mg BID 7 days + carboplatin
[4] = Cohort 4: 40 mg BID days 4–10 (7 days) + carboplatin AUC5, 3 patients
[5] = Cohort 5 (N=8), 60 mg QD 7 days + carboplatin

## C[C@@H]1COCCN1c1cc(C2([S@](C)(=N)=O)CC2)nc(-c2cc[nH]c3nccc2-3)n1 [ceralasertib]
[1]
  TEAE Anemia, Grade ≥3: 0 patients, n (%)
  TEAE Any AE, Grade 1–2: 1 (33) patients, n (%)
  TEAE Any AE, Grade ≥3: 2 (67) patients, n (%)
  TEAE Arthralgia, Grade 1–2: 0 patients, n (%)
  TEAE Arthralgia, Grade ≥3: 0 patients, n (%)
  TEAE Aspartate aminotransferase increased, Grade 1–2: 0 patients, n (%)
  TEAE Aspartate aminotransferase increased, Grade ≥3: 0 patients, n (%)
  TEAE Constipation, Grade 1–2: 1 (33) patients, n (%)
  TEAE Constipation, Grade ≥3: 0 patients, n (%)
  TEAE Contusion, Grade 1–2: 2 (67) patients, n (%)
  TEAE Contusion, Grade ≥3: 0 patients, n (%)
  TEAE Cough, Grade 1–2: 0 patients, n (%)
  TEAE Cough, Grade ≥3: 0 patients, n (%)
  TEAE Decreased appetite, Grade 1–2: 1 (33) patients, n (%)
  TEAE Decreased appetite, Grade ≥3: 0 patients, n (%)
  TEAE Diarrhea, Grade 1–2: 0 patients, n (%)
  TEAE Diarrhea, Grade ≥3: 0 patients, n (%)
  TEAE Dizziness, Grade 1–2: 0 patients, n (%)
  TEAE Dizziness, Grade ≥3: 0 patients, n (%)
  TEAE Dyspnea, Grade 1–2: 0 patients, n (%)
  TEAE Dyspnea, Grade ≥3: 0 patients, n (%)
  TEAE Fatigue, Grade 1–2: 1 (33) patients, n (%)
  TEAE Fatigue, Grade ≥3: 0 patients, n (%)
  TEAE Hypocalcemia, Grade 1–2: 0 patients, n (%)
  TEAE Hypocalcemia, Grade ≥3: 0 patients, n (%)
  TEAE Insomnia, Grade 1–2: 1 (33) patients, n (%)
  TEAE Insomnia, Grade ≥3: 0 patients, n (%)
  TEAE Lower respiratory tract infection, Grade 1–2: 0 patients, n (%)
  TEAE Lower respiratory tract infection, Grade ≥3: 0 patients, n (%)
  TEAE Nausea, Grade 1–2: 0 patients, n (%)
  TEAE Nausea, Grade ≥3: 0 patients, n (%)
  TEAE Neutropenia, Grade 1–2: 1 (33) patients, n (%)
  TEAE Neutropenia, Grade ≥3: 2 (67) patients, n (%)
  TEAE Neutrophil count decreased, Grade 1–2: 0 patients, n (%)
  TEAE Neutrophil count decreased, Grade ≥3: 0 patients, n (%)
  TEAE Platelet count decreased, Grade 1–2: 1 (33) patients, n (%)
  TEAE Platelet count decreased, Grade ≥3: 0 patients, n (%)
  TEAE Pyrexia, Grade 1–2: 0 patients, n (%)
  TEAE Pyrexia, Grade ≥3: 0 patients, n (%)
  TEAE Thrombocytopenia, Grade 1–2: 1 (33) patients, n (%)
  TEAE Thrombocytopenia, Grade ≥3: 2 (67) patients, n (%)
  TEAE Upper respiratory tract infection, Grade 1–2: 0 patients, n (%)
  TEAE Upper respiratory tract infection, Grade ≥3: 0 patients, n (%)
  TEAE Vomiting, Grade 1–2: 0 patients, n (%)
  TEAE Vomiting, Grade ≥3: 0 patients, n (%)
  TEAE White blood cell count decreased, Grade 1–2: 0 patients, n (%)
  TEAE White blood cell count decreased, Grade ≥3: 0 patients, n (%)
[2]
  Number of DLTs: no DLTs
  SRC decision (tolerability): declared intolerable; also recorded: Not tolerated
[3]
  TEAE Abdominal pain, Grade 1–2: 1 (33) patients, n (%)
  TEAE Abdominal pain, Grade ≥3: 0 patients, n (%)
  TEAE Alanine aminotransferase increased, Grade 1–2: 1 (33) patients, n (%)
  TEAE Alanine aminotransferase increased, Grade ≥3: 0 patients, n (%)
  TEAE Anemia, Grade 1–2: 1 (33) patients, n (%)
  TEAE Anemia, Grade ≥3: 1 (33) patients, n (%)
  TEAE Any AE, Grade 1–2: 0 patients, n (%)
  TEAE Any AE, Grade ≥3: 3 (100) patients, n (%)
  TEAE Arthralgia, Grade 1–2: 0 patients, n (%)
  TEAE Arthralgia, Grade ≥3: 0 patients, n (%)
  TEAE Aspartate aminotransferase increased, Grade 1–2: 0 patients, n (%)
  TEAE Aspartate aminotransferase increased, Grade ≥3: 0 patients, n (%)
  TEAE Constipation, Grade 1–2: 1 (33) patients, n (%)
  TEAE Constipation, Grade ≥3: 0 patients, n (%)
  TEAE Contusion, Grade 1–2: 0 patients, n (%)
  TEAE Contusion, Grade ≥3: 0 patients, n (%)
  TEAE Cough, Grade 1–2: 0 patients, n (%)
  TEAE Cough, Grade ≥3: 0 patients, n (%)
  TEAE Decreased appetite, Grade 1–2: 1 (33) patients, n (%)
  TEAE Decreased appetite, Grade ≥3: 0 patients, n (%)
  TEAE Diarrhea, Grade 1–2: 0 patients, n (%)
  TEAE Diarrhea, Grade ≥3: 0 patients, n (%)
  TEAE Dizziness, Grade 1–2: 1 (33) patients, n (%)
  TEAE Dizziness, Grade ≥3: 0 patients, n (%)
  TEAE Dyspnea, Grade 1–2: 0 patients, n (%)
  TEAE Dyspnea, Grade ≥3: 0 patients, n (%)
  TEAE Fatigue, Grade 1–2: 1 (33) patients, n (%)
  TEAE Fatigue, Grade ≥3: 0 patients, n (%)
  TEAE Hypocalcemia, Grade 1–2: 0 patients, n (%)
  TEAE Hypocalcemia, Grade ≥3: 0 patients, n (%)
  TEAE Insomnia, Grade 1–2: 0 patients, n (%)
  TEAE Insomnia, Grade ≥3: 0 patients, n (%)
  TEAE Lower respiratory tract infection, Grade 1–2: 0 patients, n (%)
  TEAE Lower respiratory tract infection, Grade ≥3: 0 patients, n (%)
  TEAE Nausea, Grade 1–2: 2 (67) patients, n (%)
  TEAE Nausea, Grade ≥3: 0 patients, n (%)
  TEAE Neutropenia, Grade 1–2: 1 (33) patients, n (%)
  TEAE Neutropenia, Grade ≥3: 1 (33) patients, n (%)
  TEAE Neutrophil count decreased, Grade 1–2: 0 patients, n (%)
  TEAE Neutrophil count decreased, Grade ≥3: 1 (33) patients, n (%)
  TEAE Platelet count decreased, Grade 1–2: 0 patients, n (%)
  TEAE Platelet count decreased, Grade ≥3: 0 patients, n (%)
  TEAE Pyrexia, Grade 1–2: 1 (33) patients, n (%)
  TEAE Pyrexia, Grade ≥3: 0 patients, n (%)
  TEAE Thrombocytopenia, Grade 1–2: 0 patients, n (%)
  TEAE Thrombocytopenia, Grade ≥3: 3 (100) patients, n (%)
  TEAE Upper respiratory tract infection, Grade 1–2: 0 patients, n (%)
  TEAE Upper respiratory tract infection, Grade ≥3: 0 patients, n (%)
  TEAE Vomiting, Grade 1–2: 0 patients, n (%)
  TEAE Vomiting, Grade ≥3: 0 patients, n (%)
  TEAE White blood cell count decreased, Grade 1–2: 0 patients, n (%)
  TEAE White blood cell count decreased, Grade ≥3: 1 (33) patients, n (%)
[4]
  Number of DLTs: a DLT of grade 4 thrombocytopenia and grade 3 neutropenia
  SRC decision (tolerability): declared intolerable; also recorded: Not tolerated
[5]
  TEAE Abdominal pain, Grade 1–2: 1 (13) patients, n (%)
  TEAE Abdominal pain, Grade ≥3: 0 patients, n (%)
  TEAE Alanine aminotransferase increased, Grade 1–2: 0 patients, n (%)
  TEAE Alanine aminotransferase increased, Grade ≥3: 1 (13) patients, n (%)
  TEAE Anemia, Grade 1–2: 3 (38) patients, n (%)
  TEAE Anemia, Grade ≥3: 3 (38) patients, n (%)
  TEAE Any AE, Grade 1–2: 4 (50) patients, n (%)
  TEAE Any AE, Grade ≥3: 4 (50) patients, n (%)
